Experimental data taken from PubChem BioAssay (NCI).
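Briefly, cells in 96-well plates were exposed to five compound concentrations for 48 h, and endpoints were estimated by linear interpolation. TGI is the concentration that stops growth completely.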

Legend:
Experiment in all cases: NCI tumour cell line growth inhibition, 48 h
[1] = test system: SR leukemia
[2] = test system: HCT-15 colon
[3] = test system: SW-620 colon
[4] = test system: KM12 colon
[5] = test system: OVCAR-4 ovarian
[6] = test system: OVCAR-8 ovarian
[7] = test system: SK-MEL-28 melanoma
[8] = test system: SF-295 CNS
[9] = test system: SK-OV-3 ovarian
[10] = test system: HCT-116 colon
[11] = test system: HOP-62 NSCLC
[12] = test system: A549 NSCLC
[13] = test system: MOLT-4 leukemia
[14] = test system: UACC-257 melanoma
[15] = test system: IGROV1 ovarian
[16] = test system: LOX IMVI melanoma
[17] = test system: CAKI-1 renal
[18] = test system: OVCAR-3 ovarian
[19] = test system: NCI-H522 lung
[20] = test system: RPMI-8226 leukemia
[21] = test system: PC-3 prostate
[22] = test system: MDA-MB-231 breast
[23] = test system: HOP-92 NSCLC
[24] = test system: A498 renal
[25] = test system: MDA-MB-435
[26] = test system: NCI-H23 lung
[27] = test system: SK-MEL-2 melanoma
[28] = test system: SF-268 CNS
[29] = test system: BT-549 breast
[30] = test system: UO-31 renal
[31] = test system: MALME-3M melanoma
[32] = test system: HS 578T breast
[33] = test system: SNB-19 CNS
[34] = test system: SNB-75 CNS
[35] = test system: TK-10 renal
[36] = test system: SN12C renal
[37] = test system: MCF7 breast
[38] = test system: UACC-62 melanoma
[39] = test system: NCI-H460 lung
[40] = test system: OVCAR-5 ovarian
[41] = test system: MDA-N
[42] = test system: SF-539 CNS
[43] = test system: HL-60(TB) leukemia
[44] = test system: EKVX NSCLC
[45] = test system: NCI/ADR-RES ovarian
[46] = test system: RXF 393 renal
[47] = test system: COLO 205 colon
[48] = test system: M14 melanoma
[49] = test system: T-47D breast
[50] = test system: SK-MEL-5 melanoma
[51] = test system: HT29 colon
[52] = test system: DU-145 prostate
[53] = test system: K-562 leukemia
[54] = test system: ACHN renal
[55] = test system: U251 CNS
[56] = test system: CCRF-CEM leukemia
[57] = test system: 786-0 renal
[58] = test system: HCC-2998 colon
[59] = test system: NCI-H226 lung

COCCOc1nc(-c2ccccc2)nc2ccccc12
TGI [1]: 60.9 µM
TGI [2]: 43.3 µM
TGI [3]: > 100 µM
TGI [4]: > 100 µM
TGI [5]: > 100 µM
TGI [6]: > 100 µM
TGI [7]: > 100 µM
TGI [8]: > 100 µM
TGI [9]: > 100 µM
TGI [10]: > 100 µM
TGI [11]: > 100 µM
TGI [12]: > 100 µM
TGI [13]: 70.4 µM
TGI [14]: > 100 µM
TGI [15]: > 100 µM
TGI [16]: > 100 µM
TGI [17]: > 100 µM
TGI [18]: > 100 µM
TGI [19]: > 100 µM
TGI [20]: 45.5 µM
TGI [21]: > 100 µM
TGI [22]: > 100 µM
TGI [23]: 87.6 µM
TGI [24]: 70 µM
TGI [25]: > 100 µM
TGI [26]: > 100 µM
TGI [27]: > 100 µM
TGI [28]: > 100 µM
TGI [29]: > 100 µM
TGI [30]: > 100 µM
TGI [31]: > 100 µM
TGI [32]: 73 µM
TGI [33]: > 100 µM
TGI [34]: > 100 µM
TGI [35]: > 100 µM
TGI [36]: > 100 µM
TGI [37]: > 100 µM
TGI [38]: > 100 µM
TGI [39]: 62 µM
TGI [40]: > 100 µM
TGI [41]: > 100 µM
TGI [42]: > 100 µM
TGI [43]: > 100 µM
TGI [44]: > 100 µM
TGI [45]: > 100 µM
TGI [46]: 30.6 µM
TGI [47]: > 100 µM
TGI [48]: 90 µM
TGI [49]: > 100 µM
TGI [50]: 88.3 µM
TGI [51]: > 100 µM
TGI [52]: > 100 µM
TGI [53]: > 100 µM
TGI [54]: > 100 µM
TGI [55]: > 100 µM

C/C(=N\Nc1nc2ccccc2o1)c1ccc2ccccc2n1
TGI [1]: 3.72 µM
TGI [56]: 5.77 µM
TGI [2]: 59.9 µM
TGI [3]: > 100 µM
TGI [4]: > 100 µM
TGI [5]: 5.59 µM
TGI [6]: 63.5 µM
TGI [57]: 45.7 µM
TGI [7]: > 100 µM
TGI [8]: 56.5 µM
TGI [9]: > 100 µM
TGI [10]: 20.1 µM
TGI [11]: 58.7 µM
TGI [12]: > 100 µM
TGI [13]: > 100 µM
TGI [14]: > 100 µM
TGI [15]: 5.32 µM
TGI [16]: > 100 µM
TGI [17]: 3.93 µM
TGI [18]: 3.03 µM
TGI [19]: 5.83 µM
TGI [20]: 6.41 µM
TGI [21]: 4.94 µM
TGI [22]: > 100 µM
TGI [24]: 8.64 µM
TGI [25]: > 100 µM
TGI [26]: 70.7 µM
TGI [27]: 15.2 µM
TGI [28]: 49.2 µM
TGI [29]: > 100 µM
TGI [30]: 14.4 µM
TGI [31]: 52.5 µM
TGI [32]: > 100 µM
TGI [33]: > 100 µM
TGI [34]: 28 µM
TGI [35]: 68.5 µM
TGI [36]: 56.8 µM
TGI [37]: > 100 µM
TGI [38]: 44.4 µM
TGI [39]: 30.6 µM
TGI [40]: > 100 µM
TGI [41]: > 100 µM
TGI [42]: > 100 µM
TGI [43]: 6.47 µM
TGI [44]: 9.23 µM
TGI [45]: 26.5 µM
TGI [46]: 57.5 µM
TGI [47]: > 100 µM
TGI [48]: > 100 µM
TGI [49]: 3.87 µM
TGI [50]: 14.3 µM
TGI [51]: 95.9 µM
TGI [52]: 37.3 µM
TGI [53]: > 100 µM
TGI [54]: 10.6 µM
TGI [55]: 87.2 µM

CCOC(=O)C(C(=O)OCC)C1C=CCC2c3ccccc3COCC21 (centres undefined)
TGI [56]: > 100 µM
TGI [2]: > 100 µM
TGI [3]: > 100 µM
TGI [4]: > 100 µM
TGI [5]: > 100 µM
TGI [6]: > 100 µM
TGI [57]: > 100 µM
TGI [7]: > 100 µM
TGI [8]: > 100 µM
TGI [9]: > 100 µM
TGI [10]: > 100 µM
TGI [11]: > 100 µM
TGI [12]: > 100 µM
TGI [13]: > 100 µM
TGI [14]: > 100 µM
TGI [15]: > 100 µM
TGI [16]: > 100 µM
TGI [17]: > 100 µM
TGI [18]: > 100 µM
TGI [19]: 71.2 µM
TGI [20]: > 100 µM
TGI [21]: > 100 µM
TGI [22]: > 100 µM
TGI [23]: > 100 µM
TGI [24]: > 100 µM
TGI [58]: > 100 µM
TGI [25]: > 100 µM
TGI [26]: > 100 µM
TGI [27]: > 100 µM
TGI [28]: > 100 µM
TGI [29]: > 100 µM
TGI [59]: > 100 µM
TGI [30]: > 100 µM
TGI [31]: > 100 µM
TGI [32]: > 100 µM
TGI [33]: > 100 µM
TGI [34]: > 100 µM
TGI [35]: > 100 µM
TGI [36]: > 100 µM
TGI [37]: > 100 µM
TGI [38]: > 100 µM
TGI [39]: > 100 µM
TGI [40]: > 100 µM
TGI [41]: > 100 µM
TGI [42]: > 100 µM
TGI [43]: 56.8 µM
TGI [44]: > 100 µM
TGI [45]: 96.1 µM
TGI [46]: > 100 µM
TGI [47]: 48.9 µM
TGI [48]: > 100 µM
TGI [49]: > 100 µM
TGI [50]: 36 µM
TGI [51]: > 100 µM
TGI [52]: > 100 µM
TGI [53]: > 100 µM
TGI [54]: > 100 µM
TGI [55]: > 100 µM

S=C1Nc2cnc3ccccc3c2SC1c1ccccc1 (centres undefined)
TGI [1]: > 100 µM
TGI [2]: > 100 µM
TGI [4]: > 100 µM
TGI [5]: > 100 µM
TGI [6]: > 100 µM
TGI [57]: > 100 µM
TGI [7]: > 100 µM
TGI [8]: > 100 µM
TGI [9]: > 100 µM
TGI [10]: > 100 µM
TGI [11]: > 100 µM
TGI [12]: > 100 µM
TGI [13]: > 100 µM
TGI [14]: > 100 µM
TGI [15]: > 100 µM
TGI [16]: > 100 µM
TGI [17]: > 100 µM
TGI [18]: > 100 µM
TGI [19]: > 100 µM
TGI [20]: > 100 µM
TGI [21]: > 100 µM
TGI [22]: > 100 µM
TGI [25]: > 100 µM
TGI [26]: > 100 µM
TGI [28]: > 100 µM
TGI [29]: > 100 µM
TGI [59]: > 100 µM
TGI [30]: > 100 µM
TGI [31]: > 100 µM
TGI [32]: > 100 µM
TGI [33]: > 100 µM
TGI [34]: > 100 µM
TGI [35]: > 100 µM
TGI [36]: > 100 µM
TGI [37]: > 100 µM
TGI [38]: > 100 µM
TGI [39]: > 100 µM
TGI [40]: > 100 µM
TGI [41]: > 100 µM
TGI [43]: > 100 µM
TGI [44]: > 100 µM
TGI [45]: > 100 µM
TGI [46]: 99.4 µM
TGI [47]: > 100 µM
TGI [48]: > 100 µM
TGI [49]: > 100 µM
TGI [50]: > 100 µM
TGI [51]: > 100 µM
TGI [52]: > 100 µM
TGI [53]: > 100 µM
TGI [54]: > 100 µM
TGI [55]: > 100 µM

NC(=O)CC(N)C(N)=O (centres undefined)
TGI [1]: > 100 µM
TGI [56]: > 100 µM
TGI [2]: > 100 µM
TGI [3]: > 100 µM
TGI [4]: > 100 µM
TGI [5]: > 100 µM
TGI [6]: > 100 µM
TGI [57]: > 100 µM
TGI [7]: > 100 µM
TGI [8]: > 100 µM
TGI [9]: > 100 µM
TGI [10]: > 100 µM
TGI [11]: > 100 µM
TGI [12]: > 100 µM
TGI [13]: > 100 µM
TGI [14]: > 100 µM
TGI [15]: > 100 µM
TGI [16]: > 100 µM
TGI [17]: > 100 µM
TGI [18]: > 100 µM
TGI [19]: > 100 µM
TGI [20]: > 100 µM
TGI [21]: > 100 µM
TGI [22]: > 100 µM
TGI [23]: > 100 µM
TGI [24]: > 100 µM
TGI [25]: > 100 µM
TGI [26]: > 100 µM
TGI [27]: > 100 µM
TGI [29]: > 100 µM
TGI [59]: > 100 µM
TGI [31]: > 100 µM
TGI [32]: > 100 µM
TGI [33]: > 100 µM
TGI [34]: > 100 µM
TGI [35]: > 100 µM
TGI [36]: > 100 µM
TGI [37]: > 100 µM
TGI [38]: > 100 µM
TGI [39]: > 100 µM
TGI [41]: > 100 µM
TGI [42]: > 100 µM
TGI [43]: > 100 µM
TGI [45]: > 100 µM
TGI [46]: > 100 µM
TGI [47]: > 100 µM
TGI [48]: > 100 µM
TGI [49]: > 100 µM
TGI [50]: > 100 µM
TGI [52]: > 100 µM
TGI [53]: > 100 µM
TGI [54]: > 100 µM
TGI [55]: > 100 µM
